This is an account of results in patent US20220096516A1, “OLIGONUCLEOTIDE MOLECULE AND APPLICATION THEREOF IN TUMOR THERAPY” (Ractigen Therapeutics, priority 2019, published 2022).

d = 2'-deoxy (DNA); r = 2'-OH (RNA)

This data set deals with LHPP gene. Briefly: High-throughput screening of saRNAs targeting LHPP promoter: LHPP mRNA by one-step RT-qPCR in Huh7 cells. The class given is cell-based, human. The settings on record: 10 nM saRNA, 72 hours, relative to control (Mock). Here is the method:
Human liver cancer cell line Huh7 was cultured in DMEM medium (Gibco), containing 10% of calf serum (Sigma-Aldrich) and 1% of penicillin/streptomycin (Gibco). The cells were cultured at 5% CO2 and 37° C. According to the instructions provided by the manufacturer, RNAiMax (Invitrogen, Carlsbad, Calif.) was used to transfect small activating RNAs at a concentration of 10 nM (unless otherwise specified).
At the end of transfection, the media were discarded, and each well was washed with 150 μL of PBS once. After discarding the PBS, 50 μL of cell lysis buffer (Takara) was added to each well and incubated at room temperature for 5 min. 1 μL of the resulted cell lysis was taken from each well and analyzed by qPCR on an ABI 7500 fast real-time PCR system (Applied Biosystems) using a one-step TB Green™ PrimeScrip™ RT-PCR kit II (Takara, RR086A) Each transfection sample was repeatedly amplified in 3 replicate wells.
Reaction conditions were as follows: reverse transcription reaction (stage 1): 5 min at 42° C., 10 s at 95° C.; PCR reaction (stage 2): 5 s at 95° C., 20 s at 60° C., 45 cycles of amplification. HPRT1 and TBP were used as internal reference genes. PCR primers used for amplifying LHPP, HPRT1 and TBP genes are shown in Table 2, wherein LHPP was amplified using the LHPP F1/R1 primer pair.
To calculate the relative expression level (Erel) of LHPP (target gene) in an saRNA-transfected sample relative to control treatment (Mock), the Ct values of the target gene and the two internal reference genes were substituted into formula 1
Erel=2^(CtT^m^-CtT^s^)/((2^(CtR1^m^-CtR1^s^)*2^(CtR2^m^-CtR2^s^))^(1/2))
wherein CtTm was the Ct value of the target gene from the control (Mock) sample; CtTs was the Ct value of the target gene from the saRNA-treated sample; CtR1m was the Ct value of the internal reference gene 1 from the control (Mock) sample; CtR1s was the Ct value of the internal reference gene 1 from the saRNA-treated sample; CtR2m was the Ct value of the internal reference gene 2 from the control (Mock) sample; and CtR2s was the Ct value of the internal reference gene 2 from the saRNA-treated sample.
In order to obtain saRNAs capable of activating LHPP transcription, Huh7 cells were transfected with each of the aforementioned 290 saRNAs with a transfection concentration of 10 nM, and 72 hours later, according to the same method as described above, the cells were lysed and analyzed by one-step RT-qPCR to obtain the relative (compared with the control (Mock)) expression level of LHPP gene for each saRNA-treated sample. […] The observed maximum activation and maximum inhibition is 3.46 fold and 0.49 fold, respectively, saRNAs with activating activity are referred to as activating saRNAs, and the saRNAs with inhibiting activity are referred to as inhibiting saRNAs.
In general terms: Real-time PCR tracks product formation cycle by cycle.

As for “RAG7-97: saRNA duplex; sense CGAAAAGGACACCGUUUCATT (SEQ ID NO: 71), antisense UGAAACGGUGUCCUUUUCGTT (SEQ ID NO: 235) (sugars from the 5' end r19 d2, backbone not given here)”, the “Fold of changes in relative LHPP mRNA expression level” value turned out to be 1.29 fold and the “Fold of changes in relative LHPP mRNA expression level (log2)” value was determined as 0.37 log2.
For “RAG7-121: saRNA duplex; sense CUGAUCUCCUGGGAAGAAATT (SEQ ID NO: 52), antisense UUUCUUCCCAGGAGAUCAGTT (SEQ ID NO: 216) (sugars from the 5' end r19 d2, backbone not given here)” the same measures were 1.36 fold and 0.45 log2.
As to “RAG7-907: saRNA duplex; sense GAAAGCUCAAAGCUAUGUUTT (SEQ ID NO: 22), antisense AACAUAGCUUUGAGCUUUCTT (SEQ ID NO: 186) (sugars from the 5' end r19 d2, backbone not given here)”, the “Fold of changes in relative LHPP mRNA expression level” value is given as 1.55 fold and the “Fold of changes in relative LHPP mRNA expression level (log2)” value was determined as 0.63 log2.
For “RAG7-830: saRNA duplex; sense AUUGAGGAAACUCCUCCCUTT (SEQ ID NO: 36), antisense AGGGAGGAGUUUCCUCAAUTT (SEQ ID NO: 200) (sugars from the 5' end r19 d2, backbone not given here)” the same measures were 1.45 fold and 0.54 log2.
“RAG7-890: saRNA duplex; sense UUGGACCAGAAGUAAAGUGTT (SEQ ID NO: 76), antisense CACUUUACUUCUGGUCCAATT (SEQ ID NO: 240) (sugars from the 5' end r19 d2, backbone not given here)”: the “Fold of changes in relative LHPP mRNA expression level” value was 1.28 fold and the “Fold of changes in relative LHPP mRNA expression level (log2)” value is 0.36 log2.
For the substance “RAG7-741: saRNA duplex; sense CCUCCUGGGUUUAACGCAUTT (SEQ ID NO: 95), antisense AUGCGUUAAACCCAGGAGGTT (SEQ ID NO: 259) (sugars from the 5' end r19 d2, backbone not given here)”, the “Fold of changes in relative LHPP mRNA expression level” value came to 1.23 fold and the “Fold of changes in relative LHPP mRNA expression level (log2)” value is listed as 0.30 log2.
In the case of “RAG7-102: saRNA duplex; sense GCUUCCGAAAAGGACACCGTT (SEQ ID NO: 96), antisense CGGUGUCCUUUUCGGAAGCTT (SEQ ID NO: 260) (sugars from the 5' end r19 d2, backbone not given here)”, the “Fold of changes in relative LHPP mRNA expression level” value is recorded as 1.23 fold and the “Fold of changes in relative LHPP mRNA expression level (log2)” value was determined as 0.30 log2.
Turning to “RAG7-917: saRNA duplex; sense UCUCUUCUUUGAAAGCUCATT (SEQ ID NO: 64), antisense UGAGCUUUCAAAGAAGAGATT (SEQ ID NO: 228) (sugars from the 5' end r19 d2, backbone not given here)”, the “Fold of changes in relative LHPP mRNA expression level” value is on record as 1.32 fold and the “Fold of changes in relative LHPP mRNA expression level (log2)” value is recorded as 0.40 log2.
Turning to “RAG7-138: saRNA duplex; sense UUCCUGCUCUUUGUCCGCUTT (SEQ ID NO: 53), antisense AGCGGACAAAGAGCAGGAATT (SEQ ID NO: 217) (sugars from the 5' end r19 d2, backbone not given here)”, the “Fold of changes in relative LHPP mRNA expression level” value is 1.36 fold and the “Fold of changes in relative LHPP mRNA expression level (log2)” value was found to be 0.45 log2.
Regarding “RAG7-745: saRNA duplex; sense AAAACCUCCUGGGUUUAACTT (SEQ ID NO: 154), antisense GUUAAACCCAGGAGGUUUUTT (SEQ ID NO: 318) (sugars from the 5' end r19 d2, backbone not given here)”, the “Fold of changes in relative LHPP mRNA expression level” value is 1.11 fold and the “Fold of changes in relative LHPP mRNA expression level (log2)” value was determined as 0.15 log2.
Turning to “RAG7-140: saRNA duplex; sense UUUUCCUGCUCUUUGUCCGTT (SEQ ID NO: 74), antisense CGGACAAAGAGCAGGAAAATT (SEQ ID NO: 238) (sugars from the 5' end r19 d2, backbone not given here)”, the “Fold of changes in relative LHPP mRNA expression level” value came to 1.28 fold and the “Fold of changes in relative LHPP mRNA expression level (log2)” value is on record as 0.36 log2.
In the case of “RAG7-188: saRNA duplex; sense UUCUUGUCUCAAUUUGCCUTT (SEQ ID NO: 21), antisense AGGCAAAUUGAGACAAGAATT (SEQ ID NO: 185) (sugars from the 5' end r19 d2, backbone not given here)”, the “Fold of changes in relative LHPP mRNA expression level” value was found to be 1.55 fold and the “Fold of changes in relative LHPP mRNA expression level (log2)” value worked out at 0.64 log2.
With “RAG7-126: saRNA duplex; sense GUCCGCUGAUCUCCUGGGATT (SEQ ID NO: 45), antisense UCCCAGGAGAUCAGCGGACTT (SEQ ID NO: 209) (sugars from the 5' end r19 d2, backbone not given here)”, the “Fold of changes in relative LHPP mRNA expression level” value worked out at 1.39 fold and the “Fold of changes in relative LHPP mRNA expression level (log2)” value came to 0.48 log2.
With “RAG7-706: saRNA duplex; sense UCUUCUCAGCCCAGGUCCUTT (SEQ ID NO: 15), antisense AGGACCUGGGCUGAGAAGATT (SEQ ID NO: 179) (sugars from the 5' end r19 d2, backbone not given here)”, the “Fold of changes in relative LHPP mRNA expression level” value was determined as 1.63 fold and the “Fold of changes in relative LHPP mRNA expression level (log2)” value was determined as 0.70 log2.
As to “RAG7-171: saRNA duplex; sense CUUUGACCUUUCUUAGGGATT (SEQ ID NO: 80), antisense UCCCUAAGAAAGGUCAAAGTT (SEQ ID NO: 244) (sugars from the 5' end r19 d2, backbone not given here)”, the “Fold of changes in relative LHPP mRNA expression level” value amounted to 1.27 fold and the “Fold of changes in relative LHPP mRNA expression level (log2)” value turned out to be 0.34 log2.
With “RAG7-726: saRNA duplex; sense GCAUUGUGAUAGUCCCGUUTT (SEQ ID NO: 127), antisense AACGGGACUAUCACAAUGCTT (SEQ ID NO: 291) (sugars from the 5' end r19 d2, backbone not given here)”, the “Fold of changes in relative LHPP mRNA expression level” value was found to be 1.17 fold and the “Fold of changes in relative LHPP mRNA expression level (log2)” value came out at 0.22 log2.
For the substance “RAG7-848: saRNA duplex; sense GAAAGGUUCCGAGGGGCCATT (SEQ ID NO: 87), antisense UGGCCCCUCGGAACCUUUCTT (SEQ ID NO: 251) (sugars from the 5' end r19 d2, backbone not given here)”, the “Fold of changes in relative LHPP mRNA expression level” value was 1.25 fold and the “Fold of changes in relative LHPP mRNA expression level (log2)” value came to 0.32 log2.
In the case of “RAG7-195: saRNA duplex; sense AGGUGCCUUCUUGUCUCAATT (SEQ ID NO: 28), antisense UUGAGACAAGAAGGCACCUTT (SEQ ID NO: 192) (sugars from the 5' end r19 d2, backbone not given here)”, the “Fold of changes in relative LHPP mRNA expression level” value was determined as 1.51 fold and the “Fold of changes in relative LHPP mRNA expression level (log2)” value is recorded as 0.59 log2.
“RAG7-103: saRNA duplex; sense AGCUUCCGAAAAGGACACCTT (SEQ ID NO: 72), antisense GGUGUCCUUUUCGGAAGCUTT (SEQ ID NO: 236) (sugars from the 5' end r19 d2, backbone not given here)”: the “Fold of changes in relative LHPP mRNA expression level” value stood at 1.29 fold and the “Fold of changes in relative LHPP mRNA expression level (log2)” value amounted to 0.37 log2.
Regarding “RAG7-180: saRNA duplex; sense UCAAUUUGCCUUUGACCUUTT (SEQ ID NO: 58), antisense AAGGUCAAAGGCAAAUUGATT (SEQ ID NO: 222) (sugars from the 5' end r19 d2, backbone not given here)”, the “Fold of changes in relative LHPP mRNA expression level” value was determined as 1.35 fold and the “Fold of changes in relative LHPP mRNA expression level (log2)” value is 0.43 log2.
With “RAG7-778: saRNA duplex; sense UGUAGCAUCGAGUGGUAUUTT (SEQ ID NO: 70), antisense AAUACCACUCGAUGCUACATT (SEQ ID NO: 234) (sugars from the 5' end r19 d2, backbone not given here)”, the “Fold of changes in relative LHPP mRNA expression level” value is 1.29 fold and the “Fold of changes in relative LHPP mRNA expression level (log2)” value came to 0.37 log2.
